Results reported in patent publication US5807845A, “Therapeutic drug for acne vulgaris” (Senju Pharmaceutical Co., Ltd., priority 1996, dated 1998).
Read-outs that look alike come from different tables or passages of the source.

Key:
[1] = test system: Propionibacterium acnes (P. acnes); experiment: Minimal growth inhibitory concentration (MIC) against Propionibacterium acnes; type: cell-based, Propionibacterium acnes (clinically isolated strain); settings: for MIC: Cutibacterium acnes
Experimental: The minimal growth inhibitory concentration (MIC) of the present compound against P. acnes, which is a factor in the onset of acne vulgaris and a member of the normal flora of the skin, was determined.
(1) EPC-K (dissolved in distilled water)
Doubling dilutions from 10 mg/ml to 1.953125×10^-2 mg/ml in final concentration
(2) dl-α-tocopherol and L-ascorbic acid (dissolved in a mixed solution which consists of HC-60 (trademark, manufactured by NOF corporation) and propyleneglycol)
Dubling dilutions from 5 mg/ml to 7.8125×10^-2 mg/ml in final concentration
(3) As control, the mixed solution mentioned above was tested.
This test was performed by the method published by Committee for the Study of Methods for MIC Determination in Anaerobic Bacteria.
A frozen clinically isolated strain of P. acnes was subcultured on GAM agar medium for 3 generations and suspended in saline at about 10^8 cells/ml. This cell suspension and a 100-fold dilution thereof were used as inocula.
To molten GAM agar medium was added 1/9 volume of the test solution of a varying concentration and, after thorough mixing, sensitivity assay plates ranging from 10 mg/ml to 1.953125×10^-2 mg/ml in final concentration were prepared (plate pH 6.64-7.10). Using a loopful of the inoculum, each plate was streaked and incubated anaerobically at 37° C. for at least 48 hours. The incubated plate was then observed grossly and the lowest concentration causing a definite inhibition of growth was regarded as the MIC.
The inoculum was serially diluted 10-fold down to […] and GAM medium was inoculated with each dilution. After culture, the number of colonies were similarly countered for confirmation of the cell count.

[2] = test system: auricular sebaceous glands; experiment: Inhibitory effect on the increase in hamster auricular sebaceous gland area (testosterone propionate-induced); type: in vivo, Syrian hamster; settings: 0.2%, 20 μl to right auricle twice daily for 2 weeks
Experimental: It is known that, in acne vulgaris, the sebaceous gland function of the skin is enhanced by elevation of the androgen level. Therefore, the auricular sebaceous glands were expanded by subcutaneous administration of an androgen to hamsters and the inhibitory effect of the present compound on this enlargement was tested.
Female Syrian hamsters purchased from SLC Japan were used at the age of 7 weeks.
(2) 0.2% L-ascorbyl DL-α-tocopheryl phosphate potassium (abbreviation: EPC-K)
In 1 ml of sesame oil was dissolved 80 μg of testosterone propionate and the solution was administered subcutaneously to hamsters every other day for 2 weeks to enlarge auricular sebaceous glands. The test material was applied in a volume of 20 μl to the right auricle twice daily for 2 weeks from the beginning of the test. The normal group was subjected to neither treatment. After 2 weeks, the hamsters were sacrificed. The right auricle was bored with a 9 mm-diameter punch and the sebaceous gland area was measured by the whole mount technique. The data were statistically analyzed by Dunnett's test. The level of significance was p<0.05.

[3] = Toxicity, LD50 in rat; settings: in vivo, intravenous
[4] = 0.15625 mg/ml, 10^6 CFU/ml (Table 3)
[5] = 0.15625 mg/ml, 10^8 CFU/ml (Table 3)
[6] = 0.3125 mg/ml, 10^6 CFU/ml (Table 3)
[7] = 0.3125 mg/ml, 10^8 CFU/ml (Table 3)
[8] = 0.625 mg/ml, 10^6 CFU/ml (Table 3)
[9] = 0.625 mg/ml, 10^8 CFU/ml (Table 3)
[10] = 1.25 mg/ml, 10^6 CFU/ml (Table 3)
[11] = 1.25 mg/ml, 10^8 CFU/ml (Table 3)
[12] = 2.5 mg/ml, 10^6 CFU/ml (Table 3)
[13] = 2.5 mg/ml, 10^8 CFU/ml (Table 3)
[14] = 5.0 mg/ml, 10^6 CFU/ml (Table 3)
[15] = 5.0 mg/ml, 10^8 CFU/ml (Table 3)
[16] = 7.8125 × 10^-2 mg/ml, 10^6 CFU/ml (Table 3)
[17] = 7.8125 × 10^-2 mg/ml, 10^8 CFU/ml (Table 3)
[18] = vitamins in HC-60/propyleneglycol mixed solution, cell counts 10^8 and 10^6 CFU/ml (Table 3), read-out: MIC

Cc1c(C)c2c(c(C)c1O)CCC(C)(CCCC(C)CCCC(C)CCCC(C)C)O2 (racemic) [dl-α-Tocopherol, dl-α-tocopherol]
Growth of P. acnes [1, 4]: +
Growth of P. acnes [1, 5]: +
Growth of P. acnes [1, 6]: +
Growth of P. acnes [1, 7]: +
Growth of P. acnes [1, 8]: +
Growth of P. acnes [1, 9]: +
Growth of P. acnes [1, 10]: +
Growth of P. acnes [1, 11]: +
Growth of P. acnes [1, 12]: +
Growth of P. acnes [1, 13]: +
Growth of P. acnes [1, 14]: +
Growth of P. acnes [1, 15]: +
Growth of P. acnes [1, 16]: +
Growth of P. acnes [1, 17]: +
MIC [1, 18]: ≥ 5000 µg/mL

Cc1c(C)c2c(c(C)c1OP(=O)(O)OC1=C(O)[C@@H]([C@@H](O)CO)OC1=O)CCC(C)(CCCC(C)CCCC(C)CCCC(C)C)O2 (mixture of isomers) [EPC-K, L-ascorbyl DL-α-tocopheryl phosphate potassium]
Area (auricular sebaceous gland area) ([2]; mean ± standard deviation (n = 7-8), p < 0.01 vs. methanol control): 3327 ± 225 μm^2
% Inhibition of the increase in auricular sebaceous gland area ([2]; vs. methanol control): 72.5%
Growth of P. acnes ([1]; 0.15625 mg/ml, 10^6 CFU/ml (Table 2)): +
Growth of P. acnes ([1]; 0.15625 mg/ml, 10^8 CFU/ml (Table 2)): +
Growth of P. acnes ([1]; 0.3125 mg/ml, 10^6 CFU/ml (Table 2)): -
Growth of P. acnes ([1]; 0.3125 mg/ml, 10^8 CFU/ml (Table 2)): +
Growth of P. acnes ([1]; 0.625 mg/ml, 10^6 CFU/ml (Table 2)): -
Growth of P. acnes ([1]; 0.625 mg/ml, 10^8 CFU/ml (Table 2)): -
Growth of P. acnes ([1]; 1.25 mg/ml, 10^6 CFU/ml (Table 2)): -
Growth of P. acnes ([1]; 1.25 mg/ml, 10^8 CFU/ml (Table 2)): -
Growth of P. acnes ([1]; 2.5 mg/ml, 10^6 CFU/ml (Table 2)): -
Growth of P. acnes ([1]; 2.5 mg/ml, 10^8 CFU/ml (Table 2)): -
Growth of P. acnes ([1]; 5.0 mg/ml, 10^6 CFU/ml (Table 2)): -
Growth of P. acnes ([1]; 5.0 mg/ml, 10^8 CFU/ml (Table 2)): -
Growth of P. acnes ([1]; 10.0 mg/ml, 10^6 CFU/ml (Table 2)): -
Growth of P. acnes ([1]; 10.0 mg/ml, 10^8 CFU/ml (Table 2)): -
Growth of P. acnes ([1]; 1.953125 × 10^-2 mg/ml, 10^6 CFU/ml (Table 2)): +
Growth of P. acnes ([1]; 1.953125 × 10^-2 mg/ml, 10^8 CFU/ml (Table 2)): +
Growth of P. acnes ([1]; 3.90625 × 10^-2 mg/ml, 10^6 CFU/ml (Table 2)): +
Growth of P. acnes ([1]; 3.90625 × 10^-2 mg/ml, 10^8 CFU/ml (Table 2)): +
Growth of P. acnes ([1]; 7.8125 × 10^-2 mg/ml, 10^6 CFU/ml (Table 2)): +
Growth of P. acnes ([1]; 7.8125 × 10^-2 mg/ml, 10^8 CFU/ml (Table 2)): +
MIC ([1]; cell count 10^6 /ml, EPC-K dissolved in distilled water): 312 µg/mL
MIC ([1]; cell count 10^8 /ml, EPC-K dissolved in distilled water): 625 µg/mL
LD50 [3]: ≥ 100 mg/kg

O=C1O[C@H]([C@@H](O)CO)C(O)=C1O [L-Ascorbic acid, L-ascorbic acid]
Growth of P. acnes [1, 4]: +
Growth of P. acnes [1, 5]: +
Growth of P. acnes [1, 6]: +
Growth of P. acnes [1, 7]: +
Growth of P. acnes [1, 8]: +
Growth of P. acnes [1, 9]: +
Growth of P. acnes [1, 10]: +
Growth of P. acnes [1, 11]: +
Growth of P. acnes [1, 12]: +
Growth of P. acnes [1, 13]: +
Growth of P. acnes [1, 14]: +
Growth of P. acnes [1, 15]: +
Growth of P. acnes [1, 16]: +
Growth of P. acnes [1, 17]: +
MIC [1, 18]: ≥ 5000 µg/mL
